Data set [1] has as its system Pseudomonas aeruginosa. Put plainly: Antimicrobial screening by agar dilution, Pseudomonas aeruginosa. The data set is classed as cell-based. The conditions noted are these: after 10, 20, 40 and 60 minutes at all dilutions 1:100, 1:200, 1:400, 1:800. The protocol: (§1) The antibacterial properties of the synthesized compound 2-(2-ethoxyethoxy)-6-(4-hydroxyphenyl)-4-(4-methylphenyl)nicotinonitrile were studied by the method of agar dilution. Test solutions of each compound was prepared in concentration of 1% using dimethylformamide as a solvent then they are diluted in physiological solution to obtain the final experimental dilutions 1: 100, 1:200, 1:400, 1:800. The effect of these substances are compared with furacillin in a controllable study. The testing microbes used were gram positive bacteria Staphylococcus aureus, gram negative bacteria Pseudomonas aeruginosa and Escherichia coli and Candida albicans fungus. The experiments used for this survey were meat-pentonlu agar (EPA) for cultivation of bacteria and Saburo environment for the fungus. Each experiment used 1 mL of test solution on each plate […]. Two drops of emulsified with microbes feel were added. All experimental samples were taken from the agar after 10, 20, 40, 60 minutes in the environment on the basis of Patrk planted. The bacteria were cultivated at a temperature of 37° C. for 1 day and the mushroom was kept in a thermostat for 2 hours at a temperature of 28° C. Then results were checked.
In general terms: In agar dilution the substance is mixed into plates at graded concentrations.

Data set [2] has as its system Staphylococcus aureus. Kind of data set: Antimicrobial screening by agar dilution, Staphylococcus aureus. The data set is classed as cell-based. The conditions noted are these: after 10, 20, 40 and 60 minutes at all dilutions 1:100, 1:200, 1:400, 1:800. The procedure:
as §1

Data set [3] concerns Candida albicans. Kind of data set: Antimicrobial screening by agar dilution, Candida albicans. The data set is classed as cell-based. The note with it: after 10, 20, 40 and 60 minutes at all dilutions 1:100, 1:200, 1:400, 1:800. The protocol:
as §1

For data set [4], the system named is Escherichia coli. Put plainly: Antimicrobial screening by agar dilution, Escherichia coli. The data set is classed as cell-based. The conditions noted are these: after 10, 20, 40 and 60 minutes at all dilutions 1:100, 1:200, 1:400, 1:800. The procedure: as §1

The values below come from US11926595B1, “2-(2-ethoxyethoxy)-6-(4-hydroxyphenyl)-4-(4-methylphenyl)nicotinonitrile as an antimicrobial compound” (KING FAISAL UNIVERSITY, priority 2023, dated 2024).

In general, melting point refers to the temperature of the solid-liquid transition.

For `CCOCCOc1nc(-c2ccc(O)cc2)cc(-c2ccc(C)cc2)c1C#N` [2-(2-ethoxyethoxy)-6-(4-hydroxyphenyl)-4-(4-methylphenyl)nicotinonitrile], the melting point fell in the range of 175 to 177 °C. The “inhibition activity (summary in words)” value in data set [1] was “highest inhibition activity”. Further, the “inhibition activity (summary in words)” value in data set [2] is reported as “highest inhibition activity”. Moreover, the “inhibition activity (summary in words)” value in data set [3] is recorded as “highest inhibition activity”. Also, in data set [4], the “inhibition activity (summary in words)” value is recorded as “highest inhibition activity”.
